These results are taken from paper PMC3558989 (Journal of Chemotherapy (Florence, Italy), 2013).

One series is described as follows: in vitro. To be noted: mouse.
Series [1] has as its system 20 strains of staphylococci, including 10 MRSA. The series can be described thus: MIC with and without pulmonary surfactant, all strains. Type of series: cell-based, S. aureus. The note with it: for effect of pulmonary surfactant on MICs: in words.
For series [2], the system named is serum proteins of mouse, rat, dog and humans. The series can be described thus: Serum protein-binding assays, summary over methods and species. Type of series: in vitro ADME, human.
The subject of another series is MSSA 29213. Put plainly: Effect of serum binding on MIC.
The test system of another series is S. aureus Smith. The note with it: single oral dose of 1 mg/kg, mouse; cited from earlier work.
For the next series, the system named is MRSA 1659. Put plainly: Effect of serum on rate of kill. Type of series: cell-based, S. aureus. To be noted: for reduction in the viable count: 10 hours.
For series [3], the system named is MSSA 29213, MRSA A6250596 (fluoroquinolone-resistant) and MRSA A7080336. Put plainly: Further combination study of AFN-1252. Type of series: cell-based, S. aureus. To be noted: three strains.

`Cc1c(CN(C)C(=O)/C=C/c2cnc3c(c2)CCC(=O)N3)oc2ccccc12` [AFN-1252] displayed a fraction unbound in the series “in vitro” of 0.06 to 0.08. Also, the “effect of pulmonary surfactant on MICs” value in series [1] is “not affected”. Moreover, in series [2] (all serum types, all concentrations), the “serum binding, equilibrium dialysis” value was “exceeded 95%”. Besides, the “binding to serum proteins” value in series [2] (mouse, rat, dog and humans, overall) is given as about 95%. Further, the “increase in MIC” value in the series with MSSA 29213 (4% human serum albumin in CAMHB) and in the series on MSSA 29213 (50% human serum vs serum-free CAMHB) was 8 fold each time. Besides, in the series on MSSA 29213 (50% serum), the “binding from MIC shift” value is “approximately 90%”. Further, the “protection from lethal peritoneal infection” value in the series with S. aureus Smith is listed as 100%. In addition, the “effect on viable count” value in the series on MRSA 1659 (75% human serum, 8× MIC) was “bacteriostatic activity”; with MRSA 1659 (75% mouse serum, 64× MIC), “bacteriostasis”. Besides, the “reduction in the viable count” value is recorded as 2 log10 in the series on MRSA 1659 (75% human serum, 64× MIC); 1–2 log10 with MRSA 1659 (absence of serum, 4× MIC); 4 log in the series with MRSA 1659 (absence of serum, 64× MIC).

For `CO/N=C(\C(=O)N[C@@H]1C(=O)N2C(C(=O)O)=C(COC(N)=O)CS[C@H]12)c1ccco1` [Cefuroxime], in series [3], the “interaction with AFN-1252” value is on record as “did not detect any synergy or antagonism”.

As to `CCCCCCCCCC(=O)N[C@@H](Cc1c[nH]c2ccccc12)C(=O)N[C@H](CC(N)=O)C(=O)N[C@@H](CC(=O)O)C(=O)N[C@@H]1C(=O)NCC(=O)N[C@@H](CCCN)C(=O)N[C@@H](CC(=O)O)C(=O)N[C@H](C)C(=O)N[C@@H](CC(=O)O)C(=O)NCC(=O)N[C@H](CO)C(=O)N[C@@H]([C@H](C)CC(=O)O)C(=O)N[C@@H](CC(=O)c2ccccc2N)C(=O)O[C@@H]1C` [Daptomycin], the “elevation of MICs” value in series [1] (presence of surfactant at 0·8 mg/ml) was “at least 32 fold”.

Consider `C[C@H]1COc2c(N3CCN(C)CC3)c(F)cc3c(=O)c(C(=O)O)cn1c23` [Levofloxacin], for which the “interaction with AFN-1252” value in series [3] is “did not detect any synergy or antagonism”.

`CN[C@H](CC(C)C)C(=O)N[C@H]1C(=O)N[C@@H](CC(N)=O)C(=O)N[C@H]2C(=O)N[C@H]3C(=O)N[C@H](C(=O)N[C@H](C(=O)O)c4cc(O)cc(O)c4-c4cc3ccc4O)[C@H](O)c3ccc(c(Cl)c3)Oc3cc2cc(c3O[C@@H]2O[C@H](CO)[C@@H](O)[C@H](O)[C@H]2O[C@H]2C[C@](C)(N)[C@H](O)[C@H](C)O2)Oc2ccc(cc2Cl)[C@H]1O` [Vancomycin]: the “effect of pulmonary surfactant on MICs” value in series [1] is given as “generally unaffected”.

`CC[C@H]1OC(=O)[C@H](C)[C@@H](O[C@H]2C[C@@](C)(OC)[C@@H](O)[C@H](C)O2)[C@H](C)[C@@H](O[C@@H]2O[C@H](C)C[C@H](N(C)C)[C@H]2O)[C@](C)(O)C[C@@H](C)CN(C)[C@H](C)[C@@H](O)[C@]1(C)O` [azithromycin]: the “interaction with AFN-1252” value in series [3] was “did not detect any synergy or antagonism”.

`CO/N=C(\C(=O)N[C@@H]1C(=O)N2C(C(=O)O)=C(CSc3nc(=O)c(=O)[nH]n3C)CS[C@H]12)c1csc(N)n1` [ceftriaxone]: in series [3], the “interaction with AFN-1252” value is listed as “did not detect any synergy or antagonism”.

`COc1c(N2CCNC(C)C2)c(F)cc2c(=O)c(C(=O)O)cn(C3CC3)c12` (stereo not shown) [gatifloxacin]: the “interaction with AFN-1252” value in series [3] is on record as “did not detect any synergy or antagonism”.

Regarding `C[C@@H](O)[C@H]1C(=O)N2C(C(=O)O)=C(S[C@@H]3CN[C@H](C(=O)N(C)C)C3)[C@H](C)[C@H]12` [meropenem], the “interaction with AFN-1252” value in series [3] is “did not detect any synergy or antagonism”.

For penicillin, the “interaction with AFN-1252” value in series [3] was “did not detect any synergy or antagonism”.
